# Several values for one entry are separate records, joined by “and”; a condition that tells them apart may be missing. Equal values may be shown once. Entries after “also recorded” stand apart in the source; their conditions may differ.
# Tests used:
# Type in all cases: in vivo, human
# [1] = Safety assessment / adverse events in CABG patients (Phase 2); details: for Patients with one or more adverse events: placebo 29 of 37
# Method: In addition to the hemodynamic monitoring described above the following tests were performed at screening, on the first post-operative day and at discharge:
# 4. Any adverse events were recorded throughout by the investigator, who assessed their severity and the relationship of these adverse experiences to the treatment.
# 11. Adverse Effects. The incidence, severity and drug-relatedness of any adverse effects were tabulated by treatment group by decreasing incidence of such effects in the high dose group. Statistical analysis was not performed.
# [2] = tested on: patients undergoing coronary artery bypass graft (CABG) surgery; assay: Myocardial ischemia by continuous Holter ECG and TEE (Phase 2); details: for Mean duration of postbypass ECG ischemic episodes: patients with events, placebo 175 ± 156, p=0.04; for Incidence of prebypass ECG ischemia: placebo 0%; for Incidence of ECG ischemia (postbypass) / Incidence of preoperative (baseline) ECG ischemia: placebo 18%; for Incidence of ECG ischemia (postbypass): p=0.42; for Incidence of prebypass TEE ischemia: placebo 19%; for Incidence of prebypass TEE ischemia / Ischemic minutes per hour monitored, postbypass: p=0.22; for Incidence of postbypass TEE ischemia: placebo 29%, p=0.86; for Ischemic minutes per hour monitored, postbypass: placebo 35 ± 14; for Mean area under the S-T curve (AUC), postbypass ECG ischemia: placebo -258 ± 317, p=0.24; for Incidence of preoperative (baseline) ECG ischemia: before drug; for Mean area under the S-T segment: post-bypass, placebo 35±14
# Method: During surgery, anesthesia was maintained by continuous infusion of fentanyl and midazolam. Routine clinical parameters were recorded using standard operating room monitoring equipment. Continuous 2-lead Holter ECG and TEE data were recorded. Standard surgical procedures (e.g., aorta cross-clamping, crystalloid cardioplegia, cardio-pulmonary bypass, hypothermia) were used. Anastomoses were constructed, aorta cross-clamp removed and patients were discontinued from bypass when body temperature was 37° C. The quality of anastomosis was judged by the surgeon. Difficulty in weaning from bypass was judged by need for one or more of the following: pacemaker, return to bypass, balloon pump or vasopressor administration. Hemodynamic measurements, including heart rate, arterial blood pressure, pulmonary capillary wedge pressure and cardiac output, were recorded before sternotomy, 15 and 30 min after bypass and upon chest closure. Radial artery and pulmonary artery pressures, myocardial and whole body temperature, O2 saturation, end-tidal CO2 and arterial blood gases were measured, and ECG recordings were obtained as clinically indicated. Hemodynamic variables (blood pressure, heart rate, pulmonary capillary wedge pressure) were controlled within 20% of baseline using prescribed regimens.
# A twelve-lead ECG was obtained on arrival in the intensive care unit and during post-operative days 1, 2, 3 and at hospital discharge. Creatinine phosphokinase MB band (CK-MB) was obtained every 8 hours for 48 hours and when indicated. Radio-nuclide ventriculography for ejection fraction and wall motion score was done about 14 days post-operation and as close to hospital discharge as possible. Other tests and measurements (e.g., chest x-ray, pulmonary artery wedge pressure (PCWP) were performed when clinically indicated for diagnosis or evaluation of myocardial infarction, or congestive heart failure. Timing and dose of all cardiovascular medications within 48 hours after surgery were recorded. The total dose of all analgesics during the 24-hour post-operative period was recorded. Fluid intake and output (e.g., blood replacement and urine output) were recorded for 48 hours. The type and duration of inotropic support and antiarrhythmic intervention required were recorded through 24 hours after surgery. Two-channel Holter recordings were obtained during 3 periods, the eight hours prior to intubation, from intubation through the end of surgery, and for an additional 24-48 hours after surgery.
# The evaluation of Holter tapes and echo videotapes was performed centrally by two independent blinded observers; if there was disagreement between the two, a third observer was used to "break the tie." The same observers were used throughout the study.
# 5. Ischemic Events--TEE. Ischemic event data were evaluated during two time periods--pre-bypass and post-bypass, using the following analysis:
# a) The number of patients with ischemic events was compared across the groups using Fisher's exact test. This analysis also included pre-post changes and pre- and post-combined.
# b) For patients with events, analysis of the mean duration and severity of ischemia was done. Using only the patients with ischemic events reduced the number included in the analysis, but allowed determination of whether the drug is effective in reducing the magnitude of the events, should they occur. […] For severity (an […] variable, 0-4 scale) and number of events, the Kruskal-Wallis nonparametric test was used. The same comparisons were done with the active treatment groups combined.
# 6. Ischemic Events--ECG. The analysis of ischemic events indicated by ECG was done using the same methods as the echo events. The time periods analyzed were: (a) baseline (Holter start to infusion start), (b) pre-bypass (infusion start to bypass start), (c) post-bypass (sideclamp off to infusion end), and (d) post-treatment (infusion end to Holter end). […]
# [3] = tested on: patients undergoing coronary artery bypass graft (CABG) surgery; assay: Incidence of clinical outcomes, Phase 3 CABG trial; details: for Incidence of myocardial infarction (ECG and CK-MB): placebo 4.7%; for Myocardial infarction (ECG and CK-MB), number of patients: placebo 10 of 211; for Cardiac death, number of patients: placebo 3 of 212; for Incidence of congestive heart failure: placebo 3.8%; for Life-threatening dysrhythmia, number of patients: placebo 4 of 212; for Incidence of cerebrovascular accident: placebo 4.2%; for Congestive heart failure, number of patients: placebo 8 of 212; for Cerebrovascular accident, number of patients: placebo 9 of 212; for Combined clinical outcomes, number of patients: placebo 29 of 212; for Incidence of cardiac death / Incidence of life-threatening dysrhythmia / Incidence of combined clinical outcomes: placebo […]
# [4] = high dose (0.1 mg/kg/min), 0.1 mg/kg
# [5] = low dose (0.05 mg/kg/min), 0.05 mg/kg
# [6] = high dose 0.1 mg/kg/min, n=203, p<0.05
# [7] = high dose 0.1 mg/kg/min, n=207, NS
# [8] = high dose 0.1 mg/kg/min, n=207, p<0.05
structure (smiles),measurement,setting,value
"NC(=O)c1ncn([C@@H]2O[C@H](CO)[C@@H](O)[C@H]2O)c1N [AICA riboside, 5-amino-1-β-D-ribofuranosyl-imidazole-4-carboxamide]",Patients with one or more adverse events,[1]; 0.05 mg/kg/min,28/41
same,Patients with one or more adverse events,[1]; 0.1 mg/kg/min,30/35
same,Adverse events in individual patient,"[1]; 0.38 mg/kg/min, patient A5",no events other than S-T segment elevation on the ECG post-bypass
same,Frequency of adverse events vs placebo,"[1]; drug-treated patients, 0.05 and 0.1 mg/kg/min",no evidence that any of these events occurred more frequently in drug-treated patients compared with placebo
same,Tolerability,"[1]; first patients, 0.19 or 0.38 mg/kg/min",well tolerated
same,Serious adverse experiences,"[1]; first six patients, 0.19 or 0.38 mg/kg/min",no serious adverse experiences
same,Serum/urinary uric acid and crystalluria,"[1]; five drug-treated patients, 0.19 or 0.38 mg/kg/min",significant hyperuricemia and elevated urinary uric acid levels with crystalluria
same,Urine coloration,"[1]; five patients at 0.19 or 0.38 mg/kg/min, patient A14 at 0.05 mg/kg/min","same green coloration; also recorded: clear, green coloration"
same,Mean duration of postbypass ECG ischemic episodes,[2]; [4],36 ± 20 min and 36 min
same,Incidence of prebypass ECG ischemia,[2]; high dose (0.1 mg/kg/min),3%
same,Incidence of ECG ischemia (postbypass),[2]; high dose (0.1 mg/kg/min),11%
same,Incidence of prebypass TEE ischemia,[2]; high dose (0.1 mg/kg/min),6%
same,Incidence of postbypass TEE ischemia,[2]; high dose (0.1 mg/kg/min),24%
same,"Ischemic minutes per hour monitored, postbypass",[2]; [4],27 ± 20 min/h
same,"Mean area under the S-T curve (AUC), postbypass ECG ischemia",[2]; high dose (0.1 mg/kg/min),-52 ± 28 mm-min
same,Incidence of preoperative (baseline) ECG ischemia,[2]; high dose group (0.1 mg/kg/min),14%
same,Mean area under the S-T segment,[2]; high dose,27±20
same,Mean duration of postbypass ECG ischemic episodes,[2]; [5],125 ± 80 min and 125 min
same,Incidence of prebypass ECG ischemia,[2]; low dose (0.05 mg/kg/min),3%
same,Incidence of ECG ischemia (postbypass),[2]; low dose (0.05 mg/kg/min),22%
same,Incidence of prebypass TEE ischemia,[2]; low dose (0.05 mg/kg/min),15%
same,Incidence of postbypass TEE ischemia,[2]; low dose (0.05 mg/kg/min),27%
same,"Ischemic minutes per hour monitored, postbypass",[2]; [5],40 ± 15 min/h
same,"Mean area under the S-T curve (AUC), postbypass ECG ischemia",[2]; low dose (0.05 mg/kg/min),-172 ± 144 mm-min
same,Incidence of preoperative (baseline) ECG ischemia,[2]; low dose group (0.05 mg/kg/min),14%
same,Mean area under the S-T segment,[2]; low dose,40±15
same,Effect on postsurgical myocardial ischemia,[2]; patients undergoing CABG surgery,limits the extent of postsurgical myocardial ischemia
same,Incidence of myocardial infarction (ECG and CK-MB),[3]; [6],1.5%
same,"Myocardial infarction (ECG and CK-MB), number of patients",[3]; [6],3 patients
same,"Cardiac death, number of patients",[3]; [7],0 patients
same,Incidence of congestive heart failure,[3]; [7],2.9%
same,"Life-threatening dysrhythmia, number of patients",[3]; [7],3 patients
same,Incidence of cerebrovascular accident,[3]; [8],0.5%
same,"Congestive heart failure, number of patients",[3]; [7],6 patients
same,"Cerebrovascular accident, number of patients",[3]; [8],1 patients
same,"Combined clinical outcomes, number of patients",[3]; [8],11 patients
same,Incidence of cardiac death,[3]; [7],0%
same,Incidence of life-threatening dysrhythmia,[3]; [7],1.4%
same,Incidence of combined clinical outcomes,[3]; [8],5.3%
same,Decrease in incidence of MI vs placebo,"[3]; high dose, p<0.05",68%
same,Decrease in incidence of cerebrovascular accident vs placebo,"[3]; high dose, p<0.05",88%
same,Reduction in incidence of combined outcomes vs placebo,"[3]; high dose, p<0.05",61%
same,Incidence of all deaths,"[3]; high dose, placebo 3.3%",0.5%
same,Incidence of myocardial infarction determined by either ECG or CK-MB,"[3]; high dose, placebo 24.1%",20.8%
same,Combined outcome efficacy of low dose,[3]; low dose 0.05 mg/kg/min vs placebo,no statistically significant efficacy
same,Incidence of myocardial infarction (ECG and CK-MB),"[3]; low dose 0.05 mg/kg/min, n=205",4.4%
same,"Myocardial infarction (ECG and CK-MB), number of patients","[3]; low dose 0.05 mg/kg/min, n=205",9 patients
same,"Cardiac death, number of patients","[3]; low dose 0.05 mg/kg/min, n=214",5 patients
same,Incidence of congestive heart failure,"[3]; low dose 0.05 mg/kg/min, n=214",2.8%
same,"Life-threatening dysrhythmia, number of patients","[3]; low dose 0.05 mg/kg/min, n=214",9 patients
same,Incidence of cerebrovascular accident,"[3]; low dose 0.05 mg/kg/min, n=214",0.9%
same,"Congestive heart failure, number of patients","[3]; low dose 0.05 mg/kg/min, n=214",6 patients
same,"Cerebrovascular accident, number of patients","[3]; low dose 0.05 mg/kg/min, n=214",2 patients
same,"Combined clinical outcomes, number of patients","[3]; low dose 0.05 mg/kg/min, n=214",23 patients
same,Incidence of cardiac death,"[3]; low dose 0.05 mg/kg/min, n=214",2.3%
same,Incidence of combined clinical outcomes,"[3]; low dose 0.05 mg/kg/min, n=214",10.7%
same,Incidence of life-threatening dysrhythmia,"[3]; low dose 0.05 mg/kg/min, n=214",4.2%

# From patent US5817640A (Gensia Pharmaceuticals, priority 1995, dated 1998)
